The target in the assay is T1, human S1P1 receptor (Homo sapiens, UniProt P21453).
T1 construct: expressed in transfected cells; membranes used
Nature of the assay: GTP γ35S binding assay for S1P1 activity. Conditions: for Emax at 5 µM: intrinsic activity at 5 μM, read-out: % S1P1 STIMULATION @ 5 μM; for EC50: membranes of cells stably expressing S1P1, test concentrations 0.08 to 5,000 nM, read-out: S1P1 GTPγ^35S EC50. It counts as biochemical. As to the method: Novel compounds were synthesized and tested for S1P1 activity using the GTP γ^35S binding assay. These compounds may be assessed for their ability to activate or block activation of the human S1P1 receptor in cells stably expressing the S1P1 receptor. GTP γ^35S binding was measured in the medium containing (mM) HEPES 25, pH 7.4, MgCl2 10, NaCl 100, dithitothreitol 0.5, digitonin 0.003%, 0.2 nM GTP γ^35S, and 5 μg membrane protein in a volume of 150 μl. Test compounds were included in the concentration range from 0.08 to 5,000 nM unless indicated otherwise. Membranes were incubated with 100 μM 5′-adenylylimmidodiphosphate for 30 min, and subsequently with 10 μM GDP for 10 min on ice. Drug solutions and membrane were mixed, and then reactions were initiated by adding GTP γ^35S and continued for 30 min at 25° C. Reaction mixtures were filtered over Whatman GF/B filters under vacuum, and washed three times with 3 mL of ice-cold buffer (HEPES 25, pH7.4, MgCl2 10 and NaCl 100). Filters were dried and mixed with scintillant, and counted for ^35S activity using a β-counter. Agonist-induced GTP γ^35S binding was obtained by subtracting that in the absence of agonist. Binding data were analyzed using a non-linear regression method. In case of antagonist assay, the reaction mixture contained 10 nM S1P in the presence of test antagonist at concentrations ranging from 0.08 to 5000 nM.

This passage reports Emax and EC50 results from patent US8440698B2, “3-(4-((1H-imidazol-1-yl)methyl)phenyl)-5-aryl-1,2,4-oxadiazole derivatives as sphingosine-1 phosphate receptors modulators” (Allergan, Inc., priority 2010, dated 2013).

T1 sequence (P21453 whole entry): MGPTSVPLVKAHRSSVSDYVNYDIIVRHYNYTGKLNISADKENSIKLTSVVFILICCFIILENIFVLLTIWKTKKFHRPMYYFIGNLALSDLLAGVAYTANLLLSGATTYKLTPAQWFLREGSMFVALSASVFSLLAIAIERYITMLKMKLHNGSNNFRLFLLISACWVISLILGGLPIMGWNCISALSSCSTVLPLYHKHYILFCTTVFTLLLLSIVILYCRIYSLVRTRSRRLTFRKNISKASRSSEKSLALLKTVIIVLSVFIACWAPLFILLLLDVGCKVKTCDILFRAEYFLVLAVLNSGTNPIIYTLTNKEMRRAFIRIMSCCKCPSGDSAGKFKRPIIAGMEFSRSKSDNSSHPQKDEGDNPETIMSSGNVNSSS

The EC50 is the concentration giving half of the maximal effect. `CC(C)Oc1ccc(-c2nc(-c3ccc(Cn4ccnc4)cc3Cl)no2)cc1[N+](=O)[O-]` [3-[2-chloro-4-(1H-imidazol-1-ylmethyl)phenyl]-5-(4-isopropoxy-3-nitrophenyl)-1,2,4-oxadiazole]: the Emax at 5 µM amounted to 92.3% and the concentration giving a half-maximal response (EC50) came out at 8.79 nM.

Regarding `CC(C)Oc1ccc(-c2nc(-c3ccc(Cn4ccnc4)cc3Cl)no2)cc1C(F)(F)F` [3-[2-chloro-4-(1H-imidazol-1-ylmethyl)phenyl]-5-[4-isopropoxy-3-(trifluoromethyl)phenyl]-1,2,4-oxadiazole], the Emax at 5 µM came out at 79.6% and the concentration giving a half-maximal response (EC50) was found to be 3.55 nM.

For the molecule `Cc1cc(-c2nc(-c3ccc(Cn4ccnc4)cc3C(F)(F)F)no2)ccc1OC(C)C` [3-[4-(1H-imidazol-1-ylmethyl)-2-(trifluoromethyl)phenyl]-5-(4-isopropoxy-3-methylphenyl)-1,2,4-oxadiazole], the Emax at 5 µM was found to be 7.4%.

For `CC(C)Oc1ccc(-c2nc(-c3ccc(Cn4ccnc4)cc3C(F)(F)F)no2)cc1[N+](=O)[O-]` [3-[4-(1H-imidazol-1-ylmethyl)-2-(trifluoromethyl)phenyl]-5-(4-isopropoxy-3-nitrophenyl)-1,2,4-oxadiazole], the Emax at 5 µM is 79.4% and the EC50 is 6.37 nM.

Take `CC(C)Oc1ccc(-c2nc(-c3ccc(Cn4ccnc4)cc3C(F)(F)F)no2)cc1C(F)(F)F` [3-[4-(1H-imidazol-1-ylmethyl)-2-(trifluoromethyl)phenyl]-5-[4-isopropoxy-3-(trifluoromethyl)phenyl]-1,2,4-oxadiazole]: the Emax at 5 µM worked out at 80.9% and the EC50 came to 62.4 nM.

Consider `CC(C)Oc1ccc(-c2nc(-c3ccc(Cn4ccnc4)cc3C(F)(F)F)no2)cc1Br` [5-(3-Bromo-4-isopropoxy-phenyl)-3-(4-imidazol-1-ylmethyl-2-trifluoromethyl-phenyl)-[1,2,4]oxadiazole], for which the Emax at 5 µM stood at 100% and the EC50 is 102 nM.

With `CC(C)COc1ccc(-c2nc(-c3ccc(Cn4ccnc4)cc3C(F)(F)F)no2)cc1Br` [5-(3-bromo-4-isobutoxyphenyl)-3-[4-(1H-imidazol-1-ylmethyl)-2-(trifluoromethyl)phenyl]-1,2,4-oxadiazole], the Emax at 5 µM worked out at 98.3% and the EC50 came out at 144 nM.

As for `CC(C)Oc1ccc(-c2nc(-c3ccc(Cn4ccnc4)cc3Cl)no2)cc1Br` [5-(3-bromo-4-isopropoxyphenyl)-3-[2-chloro-4-(1H-imidazol-1-ylmethyl)phenyl]-1,2,4-oxadiazole], the Emax at 5 µM worked out at 102% and the EC50 is 29.7 nM.

For `CC(C)Oc1ccc(-c2nc(-c3ccc(Cn4ccnc4)cc3C(F)(F)F)no2)cc1C#N` [5-[3-(4-Imidazol-1-ylmethyl-2-trifluoromethyl-phenyl)-[1,2,4]oxadiazol-5-yl]-2-isopropoxy-benzonitrile], the Emax at 5 µM is 97.6% and the EC50 stood at 5.22 nM.

As for `FC(F)(F)c1cc(Cn2ccnc2)ccc1-c1noc(-c2ccc(OC3CC3)c(Br)c2)n1` [5-[3-bromo-4-(cyclopropyloxy)phenyl]-3-[4-(1H-imidazol-1-ylmethyl)-2-(trifluoromethyl)phenyl]-1,2,4-oxadiazole], the Emax at 5 µM stood at 89.6% and the EC50 turned out to be 119 nM.

Regarding `CC(C)Oc1ccc(-c2nc(-c3ccc(Cn4ccnc4)cc3Cl)no2)cc1C#N` [5-{3-[2-chloro-4-(1H-imidazol-1-ylmethyl)phenyl]-1,2,4-oxadiazol-5-yl}-2-isopropoxybenzonitrile], the Emax at 5 µM is 94.9% and the EC50 was 4.56 nM.

In the case of `CC1CCCCN1c1ccc(-c2nc(-c3ccc(Cn4ccnc4)cc3)no2)cc1C#N` (stereo not drawn) [5-{3-[4-(1H-imidazol-1-ylmethyl)phenyl]-1,2,4-oxadiazol-5-yl}-2-(2-methylpiperidin-1-yl)benzonitrile], the Emax at 5 µM was found to be 99.9% and the EC50 came out at 130 nM.

With `Brc1cc(-c2nc(-c3ccc(Cn4ccnc4)cc3)no2)ccc1OC1CC1` [Compound 1, 5-(3-Bromo-4-cyclopropoxy-phenyl)-3-(4-imidazol-1-ylmethyl-phenyl)-[1,2,4]oxadiazole], the Emax at 5 µM is 99.9% and the EC50 stood at 14.4 nM.

As for `Cc1cc(Cn2ccnc2)ccc1-c1noc(-c2ccc(OC3CC3)c(Br)c2)n1` [Compound 2, 5-(3-Bromo-4-cyclopropoxy-phenyl)-3-(4-imidazol-1-ylmethyl-2-methyl-phenyl)-[1,2,4]oxadiazole], the Emax at 5 µM was 96% and the EC50 was 32 nM.

Turning to `CC(C)Oc1ccc(-c2nc(-c3ccc(Cn4ccnc4)cc3)no2)cc1C(F)(F)F` [Compound 3, 3-(4-Imidazol-1-ylmethyl-phenyl)-5-(4-isopropoxy-3-trifluoromethyl-phenyl)-[1,2,4]oxadiazole], the Emax at 5 µM came to 95.6% and the EC50 was 0.51 nM.

Turning to `CC(C)COc1ccc(-c2nc(-c3ccc(Cn4ccnc4)cc3)no2)cc1C(F)(F)F` [Compound 4, 3-(4-Imidazol-1-ylmethyl-phenyl)-5-(4-isobutoxy-3-trifluoromethyl-phenyl)-[1,2,4]oxadiazole], the Emax at 5 µM turned out to be 72.2% and the EC50 is 998 nM.

As to `FC(F)(F)c1cc(-c2nc(-c3ccc(Cn4ccnc4)cc3)no2)ccc1OC1CCCCC1` [Compound 5, 5-(4-Cyclohexyloxy-3-trifluoromethyl-phenyl)-3-(4-imidazol-1-ylmethyl-phenyl)-[1,2,4]oxadiazole], the Emax at 5 µM is 91.8% and the EC50 came out at 149 nM.

As for `Cc1cc(Cn2ccnc2)ccc1-c1noc(-c2ccc(OC(C)C)c(C(F)(F)F)c2)n1` [Compound 6, 3-(4-Imidazol-1-ylmethyl-2-methyl-phenyl)-5-(4-isopropoxy-3-trifluoromethyl-phenyl)-[1,2,4]oxadiazole], the Emax at 5 µM came to 95.5% and the 50% effective concentration (EC50) came to 3.38 nM.

On to `CC(C)Oc1ccc(-c2nc(-c3ccc(Cn4ccnc4)cc3)no2)cc1[N+](=O)[O-]` [Compound 7, 3-(4-Imidazol-1-ylmethyl-phenyl)-5-(4-isopropoxy-3-nitro-phenyl)-[1,2,4]oxadiazole], for which the Emax at 5 µM amounted to 118% and the EC50 was found to be 3.24 nM.

For `CC(C)COc1ccc(-c2nc(-c3ccc(Cn4ccnc4)cc3)no2)cc1C#N` [Compound 8, 5-[3-(4-Imidazol-1-ylmethyl-phenyl)-[1,2,4]oxadiazol-5-yl]-2-isobutoxy-benzonitrile], the Emax at 5 µM was found to be 75.9% and the EC50 was found to be 62 nM.

In the case of `CC(C)COc1ccc(-c2nc(-c3ccc(Cn4ccnc4)cc3)no2)cc1Br` [Compound 9, 5-(3-Bromo-4-isobutoxy-phenyl)-3-(4-imidazol-1-ylmethyl-phenyl)-[1,2,4]oxadiazole], the Emax at 5 µM was 86.2% and the EC50 turned out to be 28.6 nM.

For `CC(C)Cc1ccc(-c2nc(-c3ccc(Cn4ccnc4)cc3)no2)cc1` [Compound 10, 3-(4-Imidazol-1-ylmethyl-phenyl)-5-(4-isobutyl-phenyl)-[1,2,4]oxadiazole], the Emax at 5 µM was 79.8% and the EC50 was found to be 543 nM.

In the case of `CC(C)Oc1ccc(-c2nc(-c3ccc(Cn4ccnc4)cc3)no2)cc1` [Compound 11, 3-(4-Imidazol-1-ylmethyl-phenyl)-5-(4-isopropoxy-phenyl)-[1,2,4]oxadiazole], the Emax at 5 µM stood at 92.8% and the EC50 was determined as 453 nM.
